Measurements: ChEMBL document CHEMBL1201862, “PubChem BioAssay data set” (2004)
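Cells were grown in 96-well plates and exposed to each compound for 48 hours at five concentrations; endpoints were interpolated linearly between bracketing concentrations, or set to the highest concentration if not reached. GI50 marks 50% less growth.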 The source made the active and inactive calls. No stated cut-off is given here; in the data, active = GI50 up to about 1.1 µM and inactive = higher.

Tests used:
Experiment in all cases: growth of human tumour cells (NCI), 48 h
786-0 = system: 786-0
A498 = system: A498
BT-549 = system: BT-549
CAKI-1 = system: CAKI-1
HL-60 = system: HL-60
Hs-578T = system: Hs-578T
IGROV-1 = system: IGROV-1
K562 = system: K562
MOLT-4 = system: MOLT-4
OVCAR-4 = system: OVCAR-4
OVCAR-5 = system: OVCAR-5
RPMI-8226 = system: RPMI-8226
RXF 393 = system: RXF 393
SK-MEL-28 = system: SK-MEL-28
SK-MEL-2 = system: SK-MEL-2
UO-31 = system: UO-31
COLO 205 = system: COLO 205
HCC 2998 = system: HCC 2998
MCF7 = system: MCF7
SF-539 = system: SF-539

Structure (SMILES)	GI50 (786-0)	GI50 (A498)	GI50 (BT-549)	GI50 (CAKI-1)	GI50 (HL-60)	GI50 (Hs-578T)	GI50 (IGROV-1)	GI50 (K562)	GI50 (MOLT-4)	GI50 (OVCAR-4)	GI50 (OVCAR-5)	GI50 (RPMI-8226)	GI50 (RXF 393)	GI50 (SK-MEL-28)	GI50 (SK-MEL-2)	GI50 (UO-31)	GI50 (COLO 205)	GI50 (HCC 2998)	GI50 (MCF7)	GI50 (SF-539)
COc1ccc2nccc(SCC(=O)O)c2c1	> 100 µM (inactive)	> 100 µM (inactive)	> 100 µM (inactive)	> 100 µM (inactive)	> 100 µM (inactive)	> 100 µM (inactive)	> 100 µM (inactive)	> 100 µM (inactive)	> 100 µM (inactive)	> 100 µM (inactive)	> 100 µM (inactive)	> 100 µM (inactive)	> 100 µM (inactive)	> 100 µM (inactive)	> 100 µM (inactive)	> 100 µM (inactive)	–	–	–	–
COc1cc(/C=C/c2ccnc3ccccc23)cc(OC)c1OC	8.97 µM (inactive)	4 µM (inactive)	–	3.7 µM (inactive)	0.416 µM (active)	3.85 µM (inactive)	3.66 µM (inactive)	–	2.92 µM (inactive)	1.81 µM (inactive)	7.8 µM (inactive)	3.72 µM (inactive)	1.63 µM (inactive)	3.08 µM (inactive)	3.78 µM (inactive)	0.132 µM (active)	1.88 µM (inactive)	8.47 µM (inactive)	5.22 µM (inactive)	3.78 µM (inactive)
CN(C)C1(N(C)C)Oc2c(c(=O)n(C)c(=O)n2C)C(c2ccc(C(F)(F)F)cc2)C1(F)F (stereo unspecified)	> 100 µM (inactive)	> 100 µM (inactive)	> 100 µM (inactive)	> 100 µM (inactive)	–	–	–	> 100 µM (inactive)	–	> 100 µM (inactive)	> 100 µM (inactive)	> 100 µM (inactive)	> 100 µM (inactive)	> 100 µM (inactive)	> 100 µM (inactive)	> 100 µM (inactive)	> 100 µM (inactive)	> 100 µM (inactive)	> 100 µM (inactive)	–
CC1(C)S[C@@H]2[C@H](N3C(=O)c4ccccc4C3=O)CN2[C@H]1NC(=O)N[C@@H]1N2C[C@@H](N3C(=O)c4ccccc4C3=O)[C@H]2SC1(C)C	54.5 µM (inactive)	> 100 µM (inactive)	–	> 100 µM (inactive)	> 100 µM (inactive)	> 100 µM (inactive)	> 100 µM (inactive)	> 100 µM (inactive)	> 100 µM (inactive)	> 100 µM (inactive)	> 100 µM (inactive)	> 100 µM (inactive)	45.3 µM (inactive)	> 100 µM (inactive)	> 100 µM (inactive)	> 100 µM (inactive)	> 100 µM (inactive)	> 100 µM (inactive)	> 100 µM (inactive)	55.1 µM (inactive)
Cc1ccc2c(c1)NC(c1ccc(C(=O)O)cc1)c1cccn1-2 (stereo unspecified)	19.3 µM (inactive)	22.9 µM (inactive)	61.2 µM (inactive)	15.6 µM (inactive)	–	–	–	> 100 µM (inactive)	64.1 µM (inactive)	17.2 µM (inactive)	> 100 µM (inactive)	> 100 µM (inactive)	19.7 µM (inactive)	> 100 µM (inactive)	43.9 µM (inactive)	–	> 100 µM (inactive)	–	25.1 µM (inactive)	> 100 µM (inactive)
NC(=S)NS(=O)(=O)c1ccc(F)cc1	> 100 µM (inactive)	–	> 100 µM (inactive)	> 100 µM (inactive)	> 100 µM (inactive)	> 100 µM (inactive)	> 100 µM (inactive)	> 100 µM (inactive)	> 100 µM (inactive)	> 100 µM (inactive)	> 100 µM (inactive)	> 100 µM (inactive)	> 100 µM (inactive)	> 100 µM (inactive)	> 100 µM (inactive)	–	> 100 µM (inactive)	> 100 µM (inactive)	–	> 100 µM (inactive)
O=C1CC(c2ccc(Cl)cc2)C2(C(=O)NC(=S)NC2=O)C(c2ccc(Cl)cc2)C1 (stereo unspecified)	36.5 µM (inactive)	15.9 µM (inactive)	–	25.1 µM (inactive)	20.8 µM (inactive)	30 µM (inactive)	–	30.5 µM (inactive)	25.5 µM (inactive)	17.5 µM (inactive)	19.6 µM (inactive)	20.6 µM (inactive)	14.5 µM (inactive)	16.1 µM (inactive)	17.3 µM (inactive)	23.9 µM (inactive)	16.8 µM (inactive)	25.8 µM (inactive)	17.3 µM (inactive)	20 µM (inactive)
Oc1ccc(-c2nc(-c3cccnc3)c(-c3ccc(Cl)cc3)[nH]2)cc1O	12 µM (inactive)	–	10 µM (inactive)	15.1 µM (inactive)	5.05 µM (inactive)	12.2 µM (inactive)	4.34 µM (inactive)	> 100 µM (inactive)	3.78 µM (inactive)	16.1 µM (inactive)	18.7 µM (inactive)	> 100 µM (inactive)	12.7 µM (inactive)	17.5 µM (inactive)	17.8 µM (inactive)	12.8 µM (inactive)	13.9 µM (inactive)	13.7 µM (inactive)	11.5 µM (inactive)	–
